Article PMC12679848, “Sulphonamide derivatives with a triazine core as novel inducers of apoptosis and pyroptosis in glioblastoma multiforme cells” (Journal of Enzyme Inhibition and Medicinal Chemistry, 2025)
Read-outs that look alike come from different tables or passages of the source.

What was measured:
[1] = tested on: C8-D1A; test: MTT assay, C8-D1A astrocytes; type: cell-based; details: C8-D1A mouse astrocytes, 24 h of incubation
Protocol: (§1) Human glioblastoma cell lines (A172 CRL-1620™, U-87 MG HTB-14™, U-118 MG HTB-15™, T98G CRL-1690™) and the mouse astrocyte cell line (C8-D1A CRL-2541™) were obtained from the American Type Culture Collection (ATCC, Manassas, VA, USA). The cell lines were cultured in complete medium: DMEM (Corning, Kennebunk, ME, USA) for C8-D1A and T98G, and EMEM (ATCC, Manassas, VA, USA) for A172, U-87 MG, U118MG. The media were supplemented with 10% foetal bovine serum (Eurx, Gdansk, Poland) and 1% penicillin-streptomycin solution (Corning, Kennebunk, ME, USA). Cells were cultured in cell culture flasks (Sarstedt, Numbrecht, Germany) at 37 °C in 5% CO2. For experiments, cells were washed with phosphate-buffered saline without calcium and magnesium (Corning, Kennebunk, ME, USA) and treated with 0.05% trypsin and 0.02% EDTA (Corning, Kennebunk, ME, USA). Cells were counted using a Sceptre 3.0 cell counter (Merck Millipore, Burlington, MA, USA) prior to seeding into plates. For 6-well plates, 5 x 10^5 cells/mL were seeded, while for 96-well plates (Sarstedt, Numbrecht, Germany), 1 x 10^5 cells/mL were seeded in 100 μL of the medium.
(§2) The cell lines were seeded in 96-well plates and cultured according to the methodology described in the previous section. Cells were then treated with the novel derivatives MM118 and MM119 and the reference compound temozolomide (TMZ) (Sigma-Aldrich, St. Louis, MO, USA) at concentrations of 0.1, 0.25, 0.5, 1.0, 2.5, 5.0, and 10.0 μM for 24 h. The MTT assay was performed using a solution of 3–(4,5-dimethyl-2-thiazolyl)-2,5-diphenyl-2H-tetrazolium bromide (Sigma-Aldrich, St. Louis, MO, USA) at a concentration of 5 mg/mL in phosphate-buffered saline without calcium and magnesium (Corning, Kennebunk, ME, USA). After 24 h incubation with test compounds, 10 μL MTT solution was added to each well, and cells were incubated for another 2 h at 37 °C. The cells were then lysed in 100 μL lysis buffer (25 mM HCl, 2% acetic acid, 3% DMF, and 5% SDS, adjusted to pH 4.7). Absorbance was measured at 570 nm using an Absorbance 96 microplate reader (Byonoy GmbH, Hamburg, Germany).

[2] = tested on: A172; test: MTT assay, A172; type: cell-based; details: Homo sapiens, A172, 24 h of incubation
Protocol: as §1, §2

[3] = tested on: U-118 MG; test: MTT assay, U-118 MG; type: cell-based; details: Homo sapiens, 24 h of incubation, read-out: IC50 values ± SEM, MTT assay
Protocol: as §1, §2

[4] = tested on: U-87 MG; test: MTT assay, U-87 MG; type: cell-based; details: Homo sapiens, 24 h of incubation
Protocol: as §1, §2

[5] = tested on: T98G; test: MTT assay, T98G; type: cell-based; details: Homo sapiens, 24 h of incubation
Protocol: as §1, §2

[6] = tested on: DNA; set-up: method as in PMID 36835469; details: comet assays; cited from earlier work
[7] = read-out: IC50 values ± SEM, MTT assay
[8] = A 172, read-out: IC50 values ± SEM, MTT assay
[9] = 24 h, heading: IC50 values ± SEM, MTT assay

SMILES	IC50 [1, 7] [µM]	IC50 [2, 8] [µM]	IC50 [3] [µM]	IC50 [4, 7] [µM]	IC50 [5, 7] [µM]	IC50 ([2]; A 172, 24 h, heading: IC50 values ± SEM, MTT assay) [µM]	IC50 [5, 9] [µM]	IC50 [1, 9] [µM]	IC50 [4, 9] [µM]	DNA damage (single-strand and double-strand breaks) [6]
Cc1nn(-c2ccc(S(=O)(=O)N[C@@H](CO)CC(C)C)cc2)c2nn3nnnc3nc12 [MM124]	> 10	> 10	> 10	> 10	> 10					
Cc1nn(-c2ccc(S(=O)(=O)NC[C@H](O)CO)cc2)c2nn3nnnc3nc12 [MM126]	> 10	> 10	> 10	> 10	> 10					
Cc1nn(-c2ccc(S(=O)(=O)NC[C@@H](O)CO)cc2)c2nn3nnnc3nc12 [MM127]	> 10	> 10	> 10	> 10	> 10					
COC(=O)C1CCCN1S(=O)(=O)c1ccc(-n2nc(C)c3nc4nnnn4nc32)cc1 (stereo not shown) [MM128, Methyl 1-[4–(7-methyl-5H-pyrazolo[4,3-e]tetrazolo[1,5-b][1]^,[2]^,[4]triazin-5-yl)phenylsulfonyl]-pyrrolidine-2-carboxylate]			563			1.65	1.53			
COC(=O)C1CC(O)CN1S(=O)(=O)c1ccc(-n2nc(C)c3nc4nnnn4nc32)cc1 (stereo not shown) [MM129, Methyl (Z)-4-hydroxy-1-[4–(7-methyl-5H-pyrazolo[4,3-e]tetrazolo[1,5-b][1]^,[2]^,[4]triazin-5-yl)phenyl-sulfonyl]pyrrolidine-2-carboxylate]								2.86	2.35	induce DNA damage
Cc1nn(-c2ccc(S(=O)(=O)N[C@H](C)CO)cc2)c2nn3nnnc3nc12 [MM131]										induce DNA damage
